Data as given in patent publication US20060148730A1, “Method of treating tuberculosis” (priority 2003, published 2006).
≈ marks a conversion by molar mass, not a printed value.

test system: M. tuberculosis H37Rv; assay: MIC vs. M. tuberculosis H37Rv, microplate Alamar Blue assay (MABA); format: cell-based; details: Mycobacterium tuberculosis, H37RV, Table 4; read-out: MIC

| SMILES | MIC [µM] |
| --- | --- |
| CC[C@H]1OC(=O)[C@H](C)[C@@H](OC2CC(C)(OC)C(O)C(C)O2)[C@H](C)[C@@H](OC2OC(C)CC(N(C)C)C2OC(=O)Nc2ccccc2)[C@](C)(OC)C[C@@H](C)C(=O)[C@H](C)[C@@H](O)[C@]1(C)O (some centres unmarked) [Compound 3ZZ19] | 12 (≈ 10.4 µg/mL) |

same assay, conditions: Table 3; parallel-synthesis carbazate library products, SPE purified; read-out: MIC

| SMILES | MIC [µM] |
| --- | --- |
| CC[C@H]1OC(=O)[C@H](C)[C@@H](O[C@H]2CC(C)(OC)[C@@H](O)[C@H](C)O2)[C@H](C)[C@@H](O[C@@H]2O[C@H](C)C[C@H](N(C)C)[C@H]2O)[C@](C)(OC)C[C@@H](C)C(=O)[C@H](C)[C@H]2N(NCc3[nH]ncc3Br)C(=O)O[C@]12C (some centres unmarked) [D1′] | 23 (≈ 21.8 µg/mL) |
| CC[C@H]1OC(=O)[C@H](C)[C@@H](O[C@H]2CC(C)(OC)[C@@H](O)[C@H](C)O2)[C@H](C)[C@@H](O[C@@H]2O[C@H](C)C[C@H](N(C)C)[C@H]2O)[C@](C)(OC)C[C@@H](C)C(=O)[C@H](C)[C@H]2N(NCc3c(C(F)(F)F)nn(C)c3Cl)C(=O)O[C@]12C (some centres unmarked) [D3′] | 20 (≈ 19.7 µg/mL) |
| CC[C@H]1OC(=O)[C@H](C)[C@@H](O[C@H]2CC(C)(OC)[C@@H](O)[C@H](C)O2)[C@H](C)[C@@H](O[C@@H]2O[C@H](C)C[C@H](N(C)C)[C@H]2O)[C@](C)(OC)C[C@@H](C)C(=O)[C@H](C)[C@H]2N(NCc3c[nH]nc3-c3ccc(F)cc3)C(=O)O[C@]12C (some centres unmarked) [D5′] | 25 (≈ 24.1 µg/mL) |
| CC[C@H]1OC(=O)[C@H](C)[C@@H](O[C@H]2CC(C)(OC)[C@@H](O)[C@H](C)O2)[C@H](C)[C@@H](O[C@@H]2O[C@H](C)C[C@H](N(C)C)[C@H]2O)[C@](C)(OC)C[C@@H](C)C(=O)[C@H](C)[C@H]2N(NCc3cnn(-c4ccc(F)cc4)c3C)C(=O)O[C@]12C (some centres unmarked) [D7′] | 13 (≈ 12.7 µg/mL) |
| CC[C@H]1OC(=O)[C@H](C)[C@@H](O[C@H]2CC(C)(OC)[C@@H](O)[C@H](C)O2)[C@H](C)[C@@H](O[C@@H]2O[C@H](C)C[C@H](N(C)C)[C@H]2O)[C@](C)(OC)C[C@@H](C)C(=O)[C@H](C)[C@H]2N(NCc3cccnc3)C(=O)O[C@]12C (some centres unmarked) [D9′] | >15 |
| CC[C@H]1OC(=O)[C@H](C)[C@@H](O[C@H]2CC(C)(OC)[C@@H](O)[C@H](C)O2)[C@H](C)[C@@H](O[C@@H]2O[C@H](C)C[C@H](N(C)C)[C@H]2O)[C@](C)(OC)C[C@@H](C)C(=O)[C@H](C)[C@H]2N(NCc3ccnc4ccccc34)C(=O)O[C@]12C (some centres unmarked) [D11′] | 16 (≈ 14.9 µg/mL) |
| CC[C@H]1OC(=O)[C@H](C)[C@@H](O[C@H]2CC(C)(OC)[C@@H](O)[C@H](C)O2)[C@H](C)[C@@H](O[C@@H]2O[C@H](C)C[C@H](N(C)C)[C@H]2O)[C@](C)(OC)C[C@@H](C)C(=O)[C@H](C)[C@H]2N(NCc3cnccc3NC(=O)C(C)(C)C)C(=O)O[C@]12C (some centres unmarked) [E2′] | >27 |
| CC[C@H]1OC(=O)[C@H](C)[C@@H](O[C@H]2CC(C)(OC)[C@@H](O)[C@H](C)O2)[C@H](C)[C@@H](O[C@@H]2O[C@H](C)C[C@H](N(C)C)[C@H]2O)[C@](C)(OC)C[C@@H](C)C(=O)[C@H](C)[C@H]2N(NCc3cccnc3NC(=O)C(C)(C)C)C(=O)O[C@]12C (some centres unmarked) [E4′] | >27 |
| CC[C@H]1OC(=O)[C@H](C)[C@@H](O[C@H]2CC(C)(OC)[C@@H](O)[C@H](C)O2)[C@H](C)[C@@H](O[C@@H]2O[C@H](C)C[C@H](N(C)C)[C@H]2O)[C@](C)(OC)C[C@@H](C)C(=O)[C@H](C)[C@H]2N(/N=C/c3cnc(-c4ccccc4)nc3C)C(=O)O[C@]12C (some centres unmarked) [E6′] | 5 (≈ 4.84 µg/mL) |
| CC[C@H]1OC(=O)[C@H](C)[C@@H](O[C@H]2CC(C)(OC)[C@@H](O)[C@H](C)O2)[C@H](C)[C@@H](O[C@@H]2O[C@H](C)C[C@H](N(C)C)[C@H]2O)[C@](C)(OC)C[C@@H](C)C(=O)[C@H](C)[C@H]2N(NCc3c[nH]c(=O)[nH]c3=O)C(=O)O[C@]12C (some centres unmarked) [E8′] | >20 |
| CC[C@H]1OC(=O)[C@H](C)[C@@H](O[C@H]2CC(C)(OC)[C@@H](O)[C@H](C)O2)[C@H](C)[C@@H](O[C@@H]2O[C@H](C)C[C@H](N(C)C)[C@H]2O)[C@](C)(OC)C[C@@H](C)C(=O)[C@H](C)[C@H]2N(NCc3cccn3CCC#N)C(=O)O[C@]12C (some centres unmarked) [E10′] | 20 (≈ 18.4 µg/mL) |
| CC[C@H]1OC(=O)[C@H](C)[C@@H](O[C@H]2CC(C)(OC)[C@@H](O)[C@H](C)O2)[C@H](C)[C@@H](O[C@@H]2O[C@H](C)C[C@H](N(C)C)[C@H]2O)[C@](C)(OC)C[C@@H](C)C(=O)[C@H](C)[C@H]2N(NCc3cccn3-c3ccc(Cl)cc3)C(=O)O[C@]12C (some centres unmarked) [E12′] | 3.4 (≈ 3.32 µg/mL) |
| CC[C@H]1OC(=O)[C@H](C)[C@@H](O[C@H]2CC(C)(OC)[C@@H](O)[C@H](C)O2)[C@H](C)[C@@H](O[C@@H]2O[C@H](C)C[C@H](N(C)C)[C@H]2O)[C@](C)(OC)C[C@@H](C)C(=O)[C@H](C)[C@H]2N(NCc3cccn3-c3ccc(C(F)(F)F)cc3)C(=O)O[C@]12C (some centres unmarked) [F1′] | 17.6 (≈ 17.8 µg/mL) |
| CC[C@H]1OC(=O)[C@H](C)[C@@H](O[C@H]2CC(C)(OC)[C@@H](O)[C@H](C)O2)[C@H](C)[C@@H](O[C@@H]2O[C@H](C)C[C@H](N(C)C)[C@H]2O)[C@](C)(OC)C[C@@H](C)C(=O)[C@H](C)[C@H]2N(NCc3sc(C)nc3C)C(=O)O[C@]12C (some centres unmarked) [F5′] | >19 |
| CC[C@H]1OC(=O)[C@H](C)[C@@H](O[C@H]2CC(C)(OC)[C@@H](O)[C@H](C)O2)[C@H](C)[C@@H](O[C@@H]2O[C@H](C)C[C@H](N(C)C)[C@H]2O)[C@](C)(OC)C[C@@H](C)C(=O)[C@H](C)[C@H]2N(NCc3nc4ccccc4s3)C(=O)O[C@]12C (some centres unmarked) [F7′] | 16 (≈ 15 µg/mL) |
| CC[C@H]1OC(=O)[C@H](C)[C@@H](O[C@H]2CC(C)(OC)[C@@H](O)[C@H](C)O2)[C@H](C)[C@@H](O[C@@H]2O[C@H](C)C[C@H](N(C)C)[C@H]2O)[C@](C)(OC)C[C@@H](C)C(=O)[C@H](C)[C@H]2N(NCc3csc(-c4ccccc4)n3)C(=O)O[C@]12C (some centres unmarked) [F9′] | 12.6 (≈ 12.1 µg/mL) |
| CC[C@H]1OC(=O)[C@H](C)[C@@H](O[C@H]2CC(C)(OC)[C@@H](O)[C@H](C)O2)[C@H](C)[C@@H](O[C@@H]2O[C@H](C)C[C@H](N(C)C)[C@H]2O)[C@](C)(OC)C[C@@H](C)C(=O)[C@H](C)[C@H]2N(NCc3cc(Br)cs3)C(=O)O[C@]12C (some centres unmarked) [F11′] | 12.7 (≈ 12.2 µg/mL) |
| CC[C@H]1OC(=O)[C@H](C)[C@@H](O[C@H]2CC(C)(OC)[C@@H](O)[C@H](C)O2)[C@H](C)[C@@H](O[C@@H]2O[C@H](C)C[C@H](N(C)C)[C@H]2O)[C@](C)(OC)C[C@@H](C)C(=O)[C@H](C)[C@H]2N(NCc3cc4ccccc4s3)C(=O)O[C@]12C (some centres unmarked) [G2′] | 11 (≈ 10.3 µg/mL) |

same assay, conditions: Table 5; read-out: MIC

| SMILES | MIC [µM] |
| --- | --- |
| CCC1OC(=O)C(C)C(OCc2ccccc2)C(C)C(OC2OC(C)CC([N+](C)(C)Cc3ccccc3)C2OCc2ccccc2)C(C)(OC)CC(C)C(=NOCc2ccccc2)C(C)C(O)C1(C)O (centres unmarked) [Compound 2GY12] | 6.3 |
| CC[C@H]1OC(=O)[C@H](C)[C@@H](O)[C@H](C)[C@@H](O[C@@H]2O[C@H](C)C[C@H](N(C)C)[C@H]2O)[C@](C)(OC)C[C@@H](C)C(=NOCCCc2ccccc2)[C@H](C)[C@@H](O)[C@]1(C)O [Compound 2GY15] | 6.3 (≈ 4.55 µg/mL) |
| CCC1OC(=O)C(C)C(OC2CC(C)(OC)C(O)C(C)O2)C(C)C(OC2OC(C)CC(N(C)C)C2OC(=S)Nc2ccccc2)C(C)(O)CC(C)C(=NOCOCCOC)C(C)C(O)C1(C)O (centres unmarked) [Compound 3ZZ59b] | 5.6 (≈ 5.44 µg/mL) |
| CCC1OC(=O)C(C)C(OC2CC(C)(OC)C(O)C(C)O2)C(C)C(OC2OC(C)CC(N(C)C)C2OC(=S)Nc2ccccc2)C(C)(OC)CC(C)C(=O)C(C)C(O)C1(C)O (centres unmarked) [Compound 3ZZ61b] | 7.3 (≈ 6.45 µg/mL) |
